From patent publication US12502440B2, “Cross-linking compounds and methods of use thereof” (North Carolina State University, priority 2019, dated 2025)
“And” between values parts separate entries of the source, which are not always exact repeats. Equal values may be shown once.

Key:
Assay type in all cases: biochemical
[1] = test system: β-glucosidase from almonds; test: Indigogenic reaction with β-glucosidase from almonds
[2] = biological target: T1, β-glucosidase from Agrobacterium (Agrobacterium sp., UniProt P12614); test: Indigogenic reaction with β-glucosidase from Agrobacterium
T1 construct: purchased Megazyme
T1 sequence (P12614 1-459): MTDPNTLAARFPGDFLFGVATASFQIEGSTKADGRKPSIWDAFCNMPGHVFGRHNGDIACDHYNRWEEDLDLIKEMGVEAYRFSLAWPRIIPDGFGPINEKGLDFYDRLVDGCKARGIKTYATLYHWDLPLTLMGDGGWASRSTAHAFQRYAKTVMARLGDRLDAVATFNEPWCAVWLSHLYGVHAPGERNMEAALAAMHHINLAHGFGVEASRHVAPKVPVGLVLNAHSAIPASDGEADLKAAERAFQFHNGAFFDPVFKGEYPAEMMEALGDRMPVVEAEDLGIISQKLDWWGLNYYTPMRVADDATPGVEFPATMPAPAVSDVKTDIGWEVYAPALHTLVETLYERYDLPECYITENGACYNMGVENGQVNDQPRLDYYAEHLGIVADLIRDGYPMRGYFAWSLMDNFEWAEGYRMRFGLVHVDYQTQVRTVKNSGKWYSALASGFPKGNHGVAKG
Description: Next, the β-glucosidase from Agrobacterium sp. was investigated as the trigger enzyme for indigoid dye formation. […] The reaction was carried out using the enzyme (200 nM) and indoxyl-glucoside 33 (100 μM) in phosphate buffer (pH 4-9, containing 2% DMF) at 37° C. […] Note that with 200 nM enzyme and 100 μM substrate, complete reaction requires 500 turnovers of each enzyme.
Reactions with β-glucosidase from Agrobacterium. An indoxyl compound in DMF (2 μL, 5 mM) and β-glucosidase from Agrobacterium in 10 mM phosphate buffer [2 μL, 10 μM, pH 7.0, containing 50 mM NaCl and 0.6 M (NH4)2SO4] were mixed with 50 mM phosphate buffer (96 μL, pH 7.0). The reaction mixture was incubated at 37° C. for 2 h and then centrifuged for 3 min. Any precipitate was separated from the supernatant and dissolved in DMF (200 μL). The resulting solution was analyzed by absorption spectroscopy. The experiment was repeated three times.

rat liver homogenate = test: Indigoid-dye formation in rat liver homogenate; details: indoxyl 1 mM in rat liver homogenate, 5% DMF, 37° C., 24 h; ε = 1.27 × 10^4 M^−1 cm^−1 measured for 4
Description: Finally, indigoid-dye formation was carried out in rat liver homogenate (Table 1, rightmost column).
Reactions in rat liver homogenate. An indoxyl compound in DMF (5 μL, 20 mM) was mixed with rat liver homogenate (95 μL). The reaction mixture was incubated at 37° C. for 24 h. After allowing to cool to room temperature, the reaction mixture was diluted with DMF (900 μL). The mixture was heated at 70° C. for 2 min and then centrifuged for 2 min. The supernatant was separated from any precipitate. This extraction procedure was repeated two or three times with DMF (100-500 μL). The combined supernatant (1500-1800 μL) was analyzed by absorption spectroscopy.

[3] = indoxyl 1 mM, enzyme 1 unit/mL, 0.01M acetate buffer pH 5, 5% DMF, 37° C., 16-19 h, ε = 1.27 × 10^4 M^−1 cm^−1 measured for 4
[4] = indoxyl 100 μM, enzyme 200 nM, 0.05M phosphate buffer pH 7.0, 2% DMF, 37° C., 2 h, three repeats, ε = 1.27 × 10^4 M^−1 cm^−1 measured for 4
[5] = as E1 but ε measured for 43 (footnote g)
[6] = as E4 but ε measured for 43 (footnote g)

Compound	Yield (%) of indigoid dye, β-glucosidase from almonds ([1]; as E1 but ε = 2.00 × 10^4 M^−1 cm^−1 reported for 5,5′-dibromo-4,4′-dichloroindigo (footnote e))	Yield (%) of indigoid dye, β-glucosidase from Agrobacterium ([2]; as E4 but ε = 2.00 × 10^4 M^−1 cm^−1 reported for 5,5′-dibromo-4,4′-dichloroindigo (footnote e))	Yield (%) of indigoid dye, rat liver homogenate (rat liver homogenate) [%]	Yield (%) of indigoid dye, β-glucosidase from almonds [1, 3] [%]	Yield (%) of indigoid dye, β-glucosidase from Agrobacterium [2, 4]	Yield (%) of indigoid dye, β-glucosidase from almonds [1, 5] [%]	Yield (%) of indigoid dye, β-glucosidase from Agrobacterium [2, 6]
5-bromo-4-chloroindoxyl β-glucoside [compound 42, reference compound]	74% and 74^e %	116% and 116 ± 8^e %	65				
C#CCOc1ccc2[nH]cc(O[C@@H]3O[C@H](CO)[C@@H](O)[C@H](O)[C@H]3O)c2c1 [compound 25, 5-Propargyloxy-1H-indol-3-yl β-D-glucopyranoside]			11	<5	37 ± 2%		
5-[(Benzylcarbamoyl)oxy)]-1H-indole-3-yl β-D-glucopyranoside [compound 16]			9	24			
COC(=O)COc1ccc2[nH]cc(OC3O[C@H](CO)[C@@H](O)[C@H](O)[C@H]3O)c2c1 (stereo partly drawn) [compound 22, 5-(Methoxycarbonyl)methoxy-1H-indol-3-yl-D-glucopyranoside]			<5	<1	30 ± 6%		
C#CCOc1c(Br)cc2[nH]cc(O[C@@H]3O[C@H](CO)[C@@H](O)[C@H](O)[C@H]3O)c2c1Br [compound 27, 4,6-Dibromo-5-propargyloxy-1H-indol-3-yl β-D-glucopyranoside]			50	105	184 ± 3%	51	89 ± 2%
OC[C@H]1O[C@@H](Oc2c[nH]c3cc(Br)c(OC[C@@H]4[C@@H]5CCC#CCC[C@@H]54)c(Br)c23)[C@H](O)[C@@H](O)[C@@H]1O [compound 30, 5-{[(1R,8S,9s)-Bicyclo[6.1.0]non-4-yn-9-yl]methoxy}-4,6-dibromo-1H-indole-3-yl β-D-glucopyranoside]					21 ± 1%		10% and 10 ± 0.4%
COC(=O)COc1ccc2[nH]cc(O[C@@H]3O[C@H](CO)[C@@H](O)[C@H](O)[C@H]3O)c2c1Br [compound 23, 4-Bromo-5-(methoxycarbonyl)methoxy-1H-indol-3-yl β-D-glucopyranoside]			<5	68	84 ± 4%		
C#CCOc1ccc2[nH]cc(O[C@@H]3O[C@H](CO)[C@@H](O)[C@H](O)[C@H]3O)c2c1Br [compound 26, 4-Bromo-5-propargyloxy-1H-indol-3-yl β-D-glucopyranoside]			17	56	79 ± 1%		
COc1nc(Oc2ccc3[nH]cc(O[C@@H]4O[C@H](CO)[C@@H](O)[C@H](O)[C@H]4O)c3c2)nc(N2CCOCC2)n1 [compound 19, 5-[(4-Methoxy-6-morpholino-1,3,5-triazin-2-yl)oxy]-1H-indole-3-yl β-D-glucopyranoside]			<5	<1	46 + 5%		
COc1nc(Oc2c(Br)cc3[nH]cc(O[C@@H]4O[C@H](CO)[C@@H](O)[C@H](O)[C@H]4O)c3c2Br)nc(N2CCOCC2)n1 [compound 21, 4,6-Dibromo-5-[(4-methoxy-6-morpholino-1,3,5-triazin-2-yl)oxy]-1H-indole-3-yl β-D-glucopyranoside]			<5		63 ± 4%		31 ± 2%
COc1nc(Oc2ccc3[nH]cc(O[C@@H]4O[C@H](CO)[C@@H](O)[C@H](O)[C@H]4O)c3c2Br)nc(N2CCOCC2)n1 [compound 20, 4-Bromo-5-[(4-methoxy-6-morpholino-1,3,5-triazin-2-yl)oxy]-1H-indole-3-yl β-D-glucopyranoside]			<5		150 ± 3%		
COC(=O)COc1c(Br)cc2[nH]cc(O[C@@H]3O[C@H](CO)[C@@H](O)[C@H](O)[C@H]3O)c2c1Br [compound 24, 4,6-Dibromo-5-(methoxycarbonyl)methoxy-1H-indol-3-yl β-D-glucopyranoside]			<5	122	209 ± 6%	59	102 + 3%
